Each structure is given as a SMILES string. pIC50: −log10 of the molar value. Like-named read-outs stand apart in the source and are kept apart here.

For experiment [1], the system named is thromboxane production in human platelet rich plasma (TxB2). Kind of experiment: Thromboxane production in human platelet rich plasma (TxB2 radioimmunoassay, collagen stimulated). To be noted: read-out: ACTIVITY (IC50 × 10^6 M). Type of experiment: cell-based. The text has this:
The antithrombotic activity of the compounds of the invention has been determined by their ability to inhibit production of thromboxane A2 (TxA2) by blood platelets the synthesis of which is an important factor in the aggregation of platelets and the initiation of thrombosis (R. J. Gryglewski, CRC Crit. Rev. Biochem., (1980), 7(4), 291).
The compounds of the invention have been tested by the following in vitro radioimmunoassays for their ability to inhibit thromboxane and affect prostacyclin production.
Thromboxane production in Human Platelet Rich Plasma
(§1) (a) Platelet rich plasma (prp) preparation
(§2) Human venous blood was […] from healthy male donors, who had denied any medication during the previous 14 days. Nine volumes of blood were mixed with one volume of 3.24% trisodium citrate. The citrated blood was centrifuged at 160 g for 10 mins. at 22° C. to obtain platelet rich plasma (prp). The platelets were then counted on a Coulter counter, and the platelet count was adjusted to 200,000 per μl with plasma.
(b) Thromboxane generation
The prp was then dispensed as aliquots into micro-Eppendorf tubes, maintained at 37° C. in a dry bath. The compounds, dissolved either in saline, ethanol, or dimethylsulphoxide, were added in duplicate to the prp aliquots to produce final concentrations in the range of 0.1-30 μg/ml. When ethanol and DMSO were used as the vehicle, triplicate controls containing the same percentage of vehicle as the test compounds were made. The final concentration of organic solvent was never more than 0.1%, which in previous experiments had no effect on TxB2 generation.
Following a 10 min. incubation with test compounds or vehicle, collagen was added to produce a final concentration of 20 μg/ml. The tubes were then whirly-mixed for 15 seconds and replaced in the dry bath for a further 10 minutes, controls received saline instead of collagen. The reaction was then stopped by rapid centrifugation (15000 g for 3 mins). The plasma was removed and frozen at -29° C. until assayed.
(c) Assay of Thromboxane B2
Briefly, 100 μl aliquots of the following, in 50 mM phosphate buffer+0.1% gelatin+thimerosal (pH 6.8) were incubated together for 16 hours at 4° C.: thromboxane TxB2 (plasma extract or standards 50 to 10,000 pg/ml), [^3 H]--TxB2 (approximately 15,000 dpm) and anti-TxB2 antiserum (0.5 μg/100 μl). The free and protein bound [^3 H]--TxB2 were separated by adsorption onto activated charcoal followed by centrifugation. […] of the supernatant was added to an aqueous scintillation fluid, and the radioactivity present was counted in a liquid scintillation counter. The binding of [^3 H]--TxB2 in the absence of added TxB2 was approximately 55%. The least amount of TxB2 to be detected accurately in the plasma was 50 pg/ml. Cross reactivity with other prostaglandins is less than 0.005% except PGD2 which is 1%.
Thus plasma samples were assayed to give a rough approximation of TxB2 content. The plasma was then appropriately diluted and assayed in duplicate to give accurate values.
The amount of TxB2 generated by the collagen was calculated by subtracting mean values obtained for the saline stimulated platelets from the mean values obtained from the collagen stimulated platelets. Then the amount of TxB2 generated in the presence of each concentration of compound was expressed as a % control and dose response curves were then constructed to determine the concentration of compound which produced a 50% inhibition.

The test system of experiment [2] is arachidonic acid induced aggregation of human prp. Kind of experiment: Inhibition of platelet aggregation in vitro, arachidonic acid induced (turbidometric). Format: cell-based. To be noted: for IC50: Platelet, human prp, arachidonic acid, read-out: I.C.50 (μM) vs ARACHIDONIC ACID; for inhibition of arachidonic acid induced aggregation of human prp: result in words. As for the experimental part: as §1, §2
(§3) Inhibition of Platelet Aggregation in vitro
In addition to the above tests, platelet aggregation in citrated prop (prepared as above) against a variety of aggregating agents was measured turbidometrically in a Payton Dual Channel Aggregometer (method as described in G.V.R. Born, Nature, (1962), 194, 927).

Experiment [3] has as its system platelet aggregation in the male retired breeder rat. Kind of experiment: Antiplatelet activity in the male retired breeder rat model (platelet aggregate ratio). To be noted: read-out: EX50 (3h post oral administration). Type of experiment: in vivo. As for the experimental part:
The retired breeder male rat may be utilized any time from 24 hours to 6 months after receipt without prior fasting or manipulation. […] The test (as described in R. N. Saunders, T. S. Burns, M. R. Selzer and E. R. Waskawic, Lab. Animal Sci., (1977), 27, 757-761) consists of the oral administration of the investigative compound either dissolved in or suspended in propylene glycol 400 at 20 mg/kg to four retired breeder male rats (40 mg of compound required). Three hours from the time of administration, the rats are ether anaesthetized, the abdominal cavity exposed and one ml of blood is withdrawn into each of two syringes from the vena cava. The first syringe contains four ml of buffered citrate/formalin solution and the second syringe contains four ml of buffered citrate alone. The syringes are inverted, held at room temperature for 15 minutes and the contents are centrifuged at 170 g for 14 minutes. Platelet counts are obtained on the undiluted solutions by means of a hemacytometer under 430×phase-contrast microscopy. The platelet aggregate ratio is obtained by dividing the platelet count of the first syringe by that of the second syringe. A ratio of 1.0 would indicate that no platelet aggregates are present whereas ratios below 1.0 indicate the presence and degree of platelet aggregate formation which has occurred.

Experiment [4] concerns collagen induced aggregation of human prp. Kind of experiment: Inhibition of platelet aggregation in vitro, collagen induced (turbidometric). Format: cell-based. To be noted: for IC50: Platelet, human prp, collagen, read-out: I.C.50 (μM) vs COLLAGEN; for inhibition of collagen induced aggregation of human prp: result in words. As for the experimental part:
as §1
Human venous blood was […] from healthy male donors, who had denied any medication during the previous 14 days. […] The citrated blood was centrifuged at 160 g for 10 mins. at 22° C. to obtain platelet rich plasma (prp). The platelets were then counted on a Coulter counter, and the platelet count was adjusted to 200,000 per μl with plasma.
as §3

The subject of experiment [5] is aggregation of human platelet rich-plasma. Kind of experiment: Aggregation of human platelet rich plasma (aggregating agent not stated). To be noted: in vitro, result in words. Type of experiment: cell-based.
The test system of experiment [6] is PGI2 synthesis in cultured bovine arterial endothelial cells. Kind of experiment: Prostacyclin production in cultured aortic endothelial cells (6-keto PGF1α radioimmunoassay). Type of experiment: cell-based. To be noted: for Net PGI2 synthesis: control 120. The text has this: Prostacyclin Production in Cultured Aortic Endothelial Cells
Bovine aortic arch tissue was obtained from a local abattoir, and transported to the laboratory on ice. Arterial endothelial cells were obtained from the washed (phosphate buffered saline) aortic arch tissue by gentle scraping of the intima, within two hours of sacrifice. Cell suspensions were washed by centrifugation, resuspended, and propagated in Roswell Park Memorial Institute (RPMI) 1640 medium (Moore, G. E., J.A.M.A., (1967), 199, 519) 1640 medium+20% foetal calf serum (FCS)+antibiotics (1-2 doublings). The cells were then trypsinised, cloned by limiting dilution, selected colonies grown to confluence (3-4 passages), and stored in liquid nitrogen. When required, batches of cells were removed from store, resuscitated, and propagated in RPMI medium+10% FCS+antibiotics (passaged 6-15 times). At trypsinisation, representative cells from each passage were transferred to multiwell plates (1×10^5 cells/well) and incubated for 3 days (final count 3.5×10^5 cells/well).
The medium in each well of the plate was exchanged for serum and antibiotic free RPMI 1640, and a time 0 sample (100 μl) taken. Drugs or vehicle were next added as required, and a further sample (800 μl) taken from each well after a 60 minute incubation at 37° C. with gentle shaking. Prostacyclin synthesis and release into the medium over this period was estimated using an RIA technique for 6-keto PGF1α, the stable metabolite of PGI2 (New England Nuclear 6-keto PGF1α RIA kit, Catalogue No. NEK 008).
(b) Assay of 6-keto PGF1α
Briefly, 100 μl aliquots in 50 mM phosphate buffer+0.1% gelatin+0.01% thimerosal (pH 6.8) of the following were incubated together for 16 hours at 4° C.: 6-keto PGF1α (incubation medium extract or standards 10-1000 pg/0.1 ml), [^3 H]-6-keto PGF1α (approximately 15000 dpm) anti-6-keto PGF1α antiserum. The […] and protein bound [^3 H]-6-keto PGF1α were separated by adsorption onto activated charcoal followed by centrifugation. 850 μl of the supernatant was added to an aqueous scintillation fluid, and the radioactivity present counted in a liquid scintillation counter. The binding of [^3 H]-6-keto PGF1α in the absence of added 6-keto PGF1α was approximately 40%. The least amount of 6-keto PGF1α to be detected accurately in the samples was 100 pg/ml. Cross reactivity with other prostaglandins was less than 0.3% except PGE2 (2%) and PGF2α (2.7%).

[7] abbreviates: male breeder rat, oral, 3h post administration.

Consider `c1cncc(COC(COCc2ccc3c(c2)OCO3)Cn2ccnc2)c1` (centres unmarked) [Example 34], for which the pIC50 in experiment [1] is 4.89.
On the same count and under the same terms, for `COc1ccc(COCC(Cn2ccnc2)OCc2ccccn2)cc1` (centres unmarked) [Example 28] the value was 5.00.
In the case of `OCCN(CCO)c1nc(N2CCCCC2)c2nc(N(CCO)CCO)nc(N3CCCCC3)c2n1` [dipyridamole, reference compound], the IC50 in experiment [2] and in experiment [4] was more than 200 µM throughout. Moreover, the ED50 in experiment [3] (setting [7]) came out at 1.8 mg/kg.
As for `COc1ccc(COCC(Cn2ccnc2)OCc2ccc(C#N)cc2)cc1` (centres unmarked) [Example 24], the pIC50 in experiment [1] is 4.92.
On to `COc1ccc(COCC(Cn2ccnc2)OCc2ccc3c(c2)OCO3)cc1` (centres unmarked) [Example 20], for which, in experiment [2], the IC50 came out at 24 µM and the “inhibition of arachidonic acid induced aggregation of human prp” value is listed as “clearly more active than aspirin, dipyridamole, or sulphinpyrazone”. In addition, in experiment [3] (setting [7]), the ED50 was found to be 1.8 mg/kg. For the same compound, in experiment [4], the IC50 turned out to be 89 µM and the “inhibition of collagen induced aggregation of human prp” value is “clearly more active than aspirin, dipyridamole, or sulphinpyrazone”. Moreover, the negative logarithm of the IC50 (pIC50) in experiment [1] was 5.40.
For `COc1ccc(COCC(Cn2ccnc2)OCc2ccccc2)cc1` (centres unmarked) [Example 2], the pIC50 in experiment [1] was 4.96.
`COc1ccc(COCC(Cn2ccnc2)OCc2ccc(OC)cc2)cc1` (centres unmarked) [Example 1, 1-[2-[(4-methoxyphenyl)methoxy]-3-[(4-methoxyphenyl)methoxy]propyl]-1H-imidazole]: the “aggregation of human platelet rich-plasma” value in experiment [5] is reported as “the aggregation of human platelet rich-plasma”. Further, the values for the IC50 in experiment [2] and in experiment [4] were 31 µM and 103 µM, respectively. In addition, the “inhibition of arachidonic acid induced aggregation of human prp” value in experiment [2] is given as “clearly more active than aspirin, dipyridamole, or sulphinpyrazone”. The ED50 in experiment [3] (setting [7]) stood at 0.49 mg/kg. The “inhibition of collagen induced aggregation of human prp” value in experiment [4] is recorded as “clearly more active than aspirin, dipyridamole, or sulphinpyrazone”. In addition, the “Net PGI2 synthesis” value is on record as 125 pg 6-keto PGF1 α/60 min/3.5 × 10^5 in experiment [6] (26 µM), 130 pg 6-keto PGF1 α/60 min/3.5 × 10^5 in experiment [6] (7.8 μm), 106 pg 6-keto PGF1 α/60 min/3.5 × 10^5 in experiment [6] (26.0 μm) and 135 pg 6-keto PGF1 α/60 min/3.5 × 10^5 in experiment [6] (78.0 μm). In experiment [6] (Bos taurus, Endothelial cell, 1 h, 2.6 μm, 60 min, read-out: % Change (PGI2 synthesis)), the activation at 2.6 µM was 4%. Further, the activation at 7.8 µM in experiment [6] (Bos taurus, Endothelial cell, 1 h, 7.8 μm, 60 min, read-out: % Change (PGI2 synthesis)) is 8%. Also, in experiment [6] (Bos taurus, Endothelial cell, 1 h, 26.0 μm, 60 min, read-out: % Change (PGI2 synthesis)), the activation at 26 µM is -12%. Moreover, the activation at 78 µM in experiment [6] (Bos taurus, Endothelial cell, 1 h, 78.0 μm, 60 min, read-out: % Change (PGI2 synthesis)) amounted to 12%. In experiment [6] (at concentrations equivalent to those which inhibit TxA2 formation, result in words), the “effect on production of prostacyclin” value is “not to significantly effect production of prostacyclin”. In addition, in experiment [6] (at concentrations substantially in excess of those which inhibit platelet thromboxane synthetase, 1 hour, result in words), the “effect on basal PGI2 synthesis” value is “no significant effect on basal PGI2 synthesis”. Further, in experiment [1], the pIC50 is 4.92.
As to `COc1ccc(COCC(Cn2ccnc2)OCc2ccc(Cl)cc2)cc1` (centres unmarked) [Example 4], the pIC50 in experiment [1] was 4.64.
For `CC(=O)Oc1ccccc1C(=O)O` [aspirin, reference compound], the IC50 in experiment [2] worked out at 56 µM. The ED50 in experiment [3] (Rattus norvegicus, po, 3 h) amounted to 7.7 mg/kg.
Consider `COc1ccc(COC(CSCc2ccc(OC)cc2)Cn2ccnc2)cc1` (centres unmarked) [Example 35], for which the pIC50 in experiment [1] was 4.66.
With `COc1ccc(COCC(Cn2ccnc2)OCc2cccc(OC)c2)cc1` (centres unmarked) [Example 15], the pIC50 in experiment [1] was 4.85.
As for `COc1ccc(COCC(Cn2ccnc2)OCc2ccsc2)cc1` (centres unmarked) [Example 30], the negative-log IC50 (pIC50) in experiment [1] was 4.70.
On to `O=C1C(CC[S+]([O-])c2ccccc2)C(=O)N(c2ccccc2)N1c1ccccc1` (centres unmarked) [sulphinpyrazone, reference compound], for which, in experiment [3] (setting [7]), the ED50 amounted to 4.1 mg/kg. The IC50 in experiment [4] is 173 µM.

As a reminder, the pIC50 is the negative decadic logarithm of the IC50, by convention in mol/L.

The values above are taken from US4636518A, “Imidazole derivatives and pharmaceutical compositions” (G. D. Searle & Co., priority 1981, dated 1987).
